# Experimental data published in paper PMC11141866, “Pyrimidine depletion enhances targeted and immune therapy combinations in acute myeloid leukemia” (JCI Insight, 2024).
# Several values for one entry are separate records, joined by “and”; a condition that tells them apart may be missing. Identical values can stand only once.
# What was measured:
# plasma DHO = test: DHO plasma accumulation in MOLM-13 tumor-bearing mice; type: in vivo, NCG mice; parameters: unit not given here; conditions: male mice, per mouse
# Method: Male 8- to 12-week-old NCG mice were engrafted with 1 × 10^5 cells via tail vein i.v. injection. […] Figure 3B and Figure 4, A and B, share the same vehicle group. page 6: Plasma samples were obtained following appropriate dosing administration and saved in the -80°C freezer till the time of analysis. Analyses by LC-MS/MS followed sample extraction by protein precipitation and separation by Ultra Performance Liquid Chromatography (UPLC, Waters Corporation, MA, USA) using a C18 column, 1.7um, 2.1x50mm, Mobile Phase A: 5:95:0.1 (v:v:v) Acetonitrile:Water:Formic Acid, Mobile Phase B: 50:50:0.1 (v:v:v) Methanol:Acetonitrile:Formic Acid. MS/MS analyses were performed on an API-6500 (Absciex MA, USA) in positive mode using an electrospray source at 550°C. The internal standard was d4-AEA monitored at 352.2 and 66.0 m/z transitions and the target analyte, HOSU-53, was monitored at 416.5 and 331.1 m/z transitions. The assay was qualified between 10-5,000 ng/ml HOSU53 to be within ±20% for QCs above the LLOQ in this range and ±25% at the LLOQ. DHO concentration quantification in mouse plasma samples. Plasma samples were obtained following appropriate dosing administration and saved in the -80°C freezer till the time of analysis. Analyses by LC-MS/MS followed sample extraction by protein precipitation and separation by Ultra Performance Liquid Chromatography (UPLC, Waters Corporation, MA, USA) using a Phenomenex Aqua C18 100x4.6mm, 3uM, […], Mobile Phase A: 100:0.1 (v:v) Water:Formic Acid, Mobile Phase B: 100:0.1 (v:v) Methanol:Formic Acid. MS/MS analyses were performed on an API-4000 (Absciex MA, USA) in negative mode using an electrospray source at 550°C. The internal standard was labeled 13C14_L-Dihydroorotic Acid monitored at 161.3 and 117.1 m/z transitions and the target analyte, L-Dihydroorotic Acid (DHO), was monitored at 157.0 and 70.0 m/z transitions. The assay was qualified between 10.0-30,000 ng/ml DHO to be within ±20% for QCs above the LLOQ in this range and ±25% at the LLOQ.
# Rat DHODH = Rat DHODH (Rattus norvegicus, UniProt Q63707); test: Cell-free multi-species DHODH enzyme inhibition assay, rat; type: biochemical; conditions: n=1
# THP1 = test: MTS proliferation assay, THP1; type: cell-based; conditions: Homo sapiens, THP-1; THP1, 96-hour treatment; read-out: IC50 (MTS proliferation)
# Method: A total of 10,000–20,000 cells from different AML lines or 50,000–75,000 cells of primary AML blasts were treated in a 96-well plate for 72 hours or 96 hours at 37°C, 5% CO2. CellTiter 96 Aqueous MTS reagent (Promega) was added to cells followed by a 3-hour incubation at 37°C, 5% CO2. The absorbance was measured at 490 nm using DTX 880 plate reader, and the IC50 was calculated using GraphPad Prism.
# Chain of Rat DHODH (Q63707 whole entry): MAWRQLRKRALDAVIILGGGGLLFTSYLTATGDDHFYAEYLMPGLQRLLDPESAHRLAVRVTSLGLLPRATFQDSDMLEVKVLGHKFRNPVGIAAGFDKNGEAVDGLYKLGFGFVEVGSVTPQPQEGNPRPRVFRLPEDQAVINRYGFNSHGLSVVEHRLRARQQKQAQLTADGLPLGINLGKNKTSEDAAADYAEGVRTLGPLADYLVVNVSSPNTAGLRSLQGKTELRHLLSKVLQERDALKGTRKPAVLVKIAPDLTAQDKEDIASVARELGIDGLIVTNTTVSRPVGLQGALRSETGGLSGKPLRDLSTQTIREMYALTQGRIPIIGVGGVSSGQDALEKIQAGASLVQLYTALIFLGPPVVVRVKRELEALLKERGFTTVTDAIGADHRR
smiles,measurement,setting,value
CCCCOc1cccc(-c2ccc(-c3cc(C(=O)O)c4cc(F)ccc4n3)cc2)c1 [HOSU-53],DHO AUC (Figure 3C y value),"plasma DHO; Day 1, 4 mpk PO, 4 mg/kg",21.3526 and 23.5341 and 32.163
same,DHO AUC (Figure 3C y value),"plasma DHO; Day 1, 10 mpk PO, 10 mg/kg",124.368 and 142.962
same,DHO AUC (Figure 3C y value),"plasma DHO; Day 1, 20 mpk PO, 20 mg/kg",335.03 and 368.431
same,DHO AUC (Figure 3C y value),"plasma DHO; Day 1, 30 mpk PO, 30 mg/kg",473.057 and 298.48 and 280.181
same,DHO AUC (Figure 3C y value),"plasma DHO; Day 14, 4 mpk PO, 4 mg/kg",78.3977 and 135.263 and 128.423
same,DHO AUC (Figure 3C y value),"plasma DHO; Day 14, 10 mpk PO, 10 mg/kg",243.197 and 313.781 and 310.505
same,DHO AUC (Figure 3C y value),"plasma DHO; Day 14, 20 mpk PO, 20 mg/kg",796.864 and 742.741 and 1170.82
same,DHO AUC (Figure 3C y value),"plasma DHO; Day 14, 30 mpk PO, 30 mg/kg",464.129 and 594.047 and 535.223
same,IC50,Rat DHODH,7.65 nM
same,IC50,THP1,50 nM
